Data on 2 molecules can be found in patent US11840518B2, “Use of bromophenol-pyrazoline compounds for the treatment of feline coronavirus diseases” (Shandong Linghai Biotechnology Co., Ltd., priority 2021, dated 2023).

For test [1], the system named is FIPV wild strain in CRFK cells. Nature of the test: Interference with FIPV replication in infected CRFK cells (qRT-PCR of vRNA in supernatant). The class given is cell-based, feline infectious peritonitis virus. Conditions: 5 μM, CRFK cells infected with wild-type FIPV, 24 hours; FIG. 2. The procedure: To further confirm in vitro enzymatic inhibition results, the inventors evaluated whether the bromophenol-pyrazoline compounds could prevent FIPV replication in clinical wild-type FIPV-infected Crandell-Rees feline kidney (CRFK) cells.
The CRFK cells were cultured with DMEM containing 8% fetal bovine serum in a cell incubator with 5% CO2 at 37° C. When the cells grew to a density of about 80%, the cells were pretreated with 5 μM bromophenol-pyrazoline compounds to be tested for 1 hour, and then an FIPV wild strain (MOI=0.1) was inoculated into the CRFK cells. The CRFK cells inoculated with virus but without the compounds were set up as controls. After 24 hours, a cell supernatant was collected, and vRNA in the supernatant was subject to qRT-PCR analysis.

Another test has as its system FIPV. Nature of the test: Clinical trial in cats infected with the FIPV (feline infectious peritonitis). The class given is in vivo. Conditions: for Moderate response: 4-week treatment. An excerpt:
Serology or morphology cannot distinguish feline enteric coronavirus from the FIPV. According to the history, epidemiology, clinical symptoms, laboratory diagnosis, imaging examination and histopathological examination, the cats were diagnosed comprehensively after other diseases were ruled out.
Thirty cats infected with the FIPV were divided into a wet FIP group (n=17) and a dry FIP group (n=13) according to presence of significant pleural effusion, ascites, dyspnea and other symptoms (fibrous pleurisy and peritonitis). The wet FIP group (17 cats) was randomly divided into a control group (3 cats), a GS-441524 group (6 cats) and a compound 5 group (8 cats). The dry FIP group (13 cats) was randomly divided into a control group (2 cats), a GS-441524 group (5 cats) and a compound 5 group (6 cats).
For the wet and dry GS-441524 groups: 4.0 mg/kg was administered subcutaneously every 24 hours; and for the wet and dry compound 5 groups: 3 mg/kg was orally administered after dissolved in glucose solution once a day.
Rectal temperature was measured at least once a day, and body weight, respiration, appetite and activity were observed. Special people were arranged to feed the cats, and foodware was washed and disinfected every day. The cats with good appetite were fed with conventional cat food, and high protein pet food can was used as nutritional supplement. The cats with poor appetite were subject to nasal feeding and intravenous injection for nutritional supplement to ensure nutrition intake of the experimental cats. At the same time, defecation and urination were also observed in terms of volume and shape. The cats were examined for blood routine indexes, serum biochemical indicators and abdominal B ultrasound condition according to actual situation.
Cases with good appetite, body weight, respiration, body temperature and other body conditions at the completion of 4-week treatment, and examined for the blood routine indexes and serum biochemical indicators twice (more than 1 week apart) were defined as effective.

For the next test, the system named is FIP. To be noted: 4 weeks of continuous treatment at 4 mg/kg; cited from earlier work.
The mark [2] stands for this setting: dry FIP group, number of cats (GS-441524 group n=5, 4.0 mg/kg s.c.; compound 5 group n=6, 3 mg/kg oral).
The mark [3] stands for this setting: dry FIP group, number of cats (GS-441524 group n=5; compound 5 group n=6).
[4] abbreviates: wet FIP group, number of cats (GS-441524 group n=6, 4.0 mg/kg s.c.; compound 5 group n=8, 3 mg/kg oral).
[5] abbreviates: wet FIP group, number of cats (GS-441524 group n=6; compound 5 group n=8).

A value given as a limit tells only on which side of the number the result lay.

`COc1ccc(C2=NN(C(N)=S)C(c3cc(O)c(O)c(Br)c3Br)C2)cc1` (stereo not drawn) [Compound 5]: the “ability to interfere with the FIPV virus replication” value in test [1] is recorded as “strongest ability to inhibit FIPV virus replication”. Moreover, in the test with FIPV (Compound 5 treatment group), the “time within which ocular lesions in some cats began to resolve significantly” value is ≤ 48 h; the “treatment time after which normal cat food was given” value was 1 days; the “treatment time after which the body temperature returned to normal and the body weight increased” value worked out at 7 days. In addition, the “comparison with the positive drug GS-441524 group” value in the test with FIPV (compound 5 3 mg/kg oral once a day vs GS-441524 4.0 mg/kg s.c. every 24 hours) was “faster onset of action, fewer deaths and higher response rate”. Moreover, in the test on FIPV (dry FIP group), the “Clinical manifestations: time within which ocular lesions in some cats began to resolve significantly” value was 48 hours, and the; the “Clinical manifestations: treatment time after which normal/ordinary cat food was given” value is “given after 1 day of days”; the “Clinical manifestations: treatment time after which the intake returned to normal” value is recorded as “normal after 3 days”. For the same molecule, the Death with FIPV (setting [2]) worked out at 0. The same molecule gave a Moderate response in the test on FIPV (setting [3]) of 5. In addition, in the test on FIPV (wet FIP group), the “Clinical manifestations: treatment time after which ascites and dyspnea basically recovered” value is “after 10 days of”; the “Clinical manifestations: treatment time after which the normal cat food was given” value is listed as “After 1 day of treat-”. The same molecule had a Death in the test on FIPV (setting [4]) of 1. The molecule further had a Moderate response in the test with FIPV (setting [5]) of 6.
On to `N#C[C@@]1(c2ccc3c(N)ncnn23)O[C@H](CO)[C@@H](O)[C@H]1O` [GS-441524, reference compound], for which the “Clinical manifestations: treatment time after which the food intake recovered” value in the test with FIPV (dry FIP group) and in the test with FIPV (wet FIP group) was “After 3 days of treat-” throughout. Besides, the Death with FIPV (setting [2]) is 0; with FIPV (setting [4]), 1. Further, the Moderate response in the test with FIPV (setting [3]) and with FIPV (setting [5]) was 3 each time. Besides, the “cats with the FIP in remission” value in the test with FIP is “about 60%”.
